SMILES strings stand for the structures.

The values below come from US7115741B2, “4-thieno[2,3-D]pyrimidin-4-YL piperazine compounds” (priority 2001, dated 2006).

The test concerns platelet ADP receptors. In words: ARB binding assay (platelet ADP receptor binding, [3H]2-MeS-ADP). Further details: species or system human. Particulars: relative activities of selected compounds in the ARB binding assay. Here is the method: Utilizing the second assay the potency of inhibition of such compounds with respect to [^3H]2-MeS-ADP binding to whole platelets is determined. [^3H]2-MeS-ADP binding experiments are routinely performed with outdated human platelets collected by standard procedures at hospital blood banks. Apyrase-washed outdated platelets are prepared as follows (all steps at room temperature, if not indicated otherwise):
Outdated platelet suspensions are diluted with 1 volume of CGS and platelets pelleted by centrifugation at 1900×g for 45 minutes. Platelet pellets are resuspended at 3–6×10^9 platelets/ml in CGS containing 1 U/ml apyrase (grade V, Sigma, St. Louis, Mo.) and incubated for 15 minutes at 37° C. After centrifugation at 730×g for 20 minutes, pellets are resuspended in Hepes-Tyrode's buffer containing 0.1% BSA (Sigma, St. Louis, Mo.) at a concentration of 6.66×10^8 platelets/ml. Binding experiments are performed after >45 minutes resting of the platelets.
Alternatively, binding experiments are performed with fresh human platelets prepared as described in I.(Inhibition of ADP-Mediated Platelet Aggregation in vitro), except that platelets are resuspended in Hepes-Tyrode's buffer containing 0.1% BSA (Sigma, St. Louis, Mo.) at a concentration of 6.66×10^8 platelets/ml. Very similar results are obtained with fresh and outdated platelets.
A platelet ADP receptor binding assay using the tritiated potent agonist ligand [^3H]2-MeS-ADP (Jantzen, H. M. et al. (1999) Thromb. Hemost. 81:111–117) has been adapted to the 96-well microtiter format. In an assay volume of 0.2 ml Hepes-Tyrode's buffer with 0.1% BSA and 0.6% DMSO, 1×10^8 apyrase-washed platelets are preincubated in 96-well flat bottom microtiter plates for 5 minutes with serial dilutions of test compounds before addition of 1 nM [^3H]2-MeS-ADP ([^3H]2-methylthioadenosine-5′-diphosphate, ammonium salt; specific activity 48–49 Ci/mmole, obtained by custom synthesis from Amersham Life Science, Inc., Arlington Heights, Ill., or NEN Life Science Products, Boston, Mass.). Total binding is determined in the absence of test compounds. Samples for nonspecific binding may contain 10^−5 M unlabelled 2-MeS-ADP (RBI, Natick, Mass.). After incubation for 15 minutes at room temperature, unbound radioligand is separated by rapid filtration and two washes with cold (4–8° C.) Binding Wash Buffer (10 mM Hepes pH 7.4, 138 mM NaCl) using a 96-well cell harvester (Minidisc 96, Skatron Instruments, Sterling, Va.) and 8×12 GF/C glassfiber filtermats (Printed Filtermat A, for 1450 Microbeta, Wallac Inc., Gaithersburg, Md.). The platelet-bound radioactivity on the filtermats is determined in a scintillation counter (Microbeta 1450, Wallac Inc., Gaithersburg, Md.). Specific binding is determined by subtraction of non-specific binding from total binding, and specific binding in the presence of test compounds is expressed as % of specific binding in the absence of test compounds dilutions.

For the compound `CCc1cc2c(N3CCN(C(=O)c4ccc(-c5ccccc5)s4)CC3)ncnc2s1` [Example 408, [4-(6-Ethyl-thieno[2,3-d]pyrimidin-4-yl)-piperazin-1-yl]-(5-phenyl-thiophen-2-yl)-methanone], the “Relative Activity” value was “++ (10–20 micromolar)”. In the case of `CCc1cc2c(N3CCN(C(=O)Cc4ccccc4)C(C)C3)ncnc2s1` (centres unmarked) [Example 197, 1-[4-(6-ethylthiopheno[3,2-e]pyrimidin-4-yl)-2-methylpiperazinyl]-2-phenylethan-1-one] it was “++ (10–20 micromolar)”; in that of `CCc1cc2c(N3CCN(C(=O)C(F)(F)F)CC3)ncnc2s1` [Example 55, 1-[4-(6-ethylthiopheno[3,2-e]pyrimidin-4-yl)piperazinyl]-2,2,2-trifluoroethan-1-one], “+++ (<10 micromolar)”; in that of `C#Cc1cc2c(N3CCN(C(=O)CC(F)(F)F)CC3)ncnc2s1` [Example 135, 1-[4-(6-ethlylylthiopheno[3,2-e]pyrimidin-4-yl)piperazinyl]-3,3,3-trifluoropropan-1-one], “+++ (<10 micromolar)”. Under `CCc1cc2c(N3CCN(C(=O)/C=C/c4ccsc4)CC3)ncnc2s1` [Example 320, 1-[4-(6-Ethyl-thieno[2,3-d]pyrimidin-4-yl)-piperazin-1-yl]-3-thiophen-3-yl-propenone] stands “+ (>20 micromolar)”. Under `CCc1cc2c(N3CCN(C(=O)c4ccc5ccccc5n4)CC3)ncnc2s1` [Example 453, [4-(6-Ethyl-thieno[2,3-d]pyrimidin-4-yl)-piperazin-1-yl]-quinolin-2-yl-methanone] stands “+ (>20 micromolar)”; under `CCc1cc2c(N3CCN(C(=O)c4cccc(COn5nnc6ccccc65)c4)CC3)ncnc2s1` [Example 250, [3-(Benzotriazol-1-yloxymethyl)-phenyl]-[4-(6-ethyl-thieno[2,3-d]pyrimidin-4-yl)-piperazin-1-yl]-methanone], “++ (10–20 micromolar)”. With `CCc1cc2c(N3CCN(C(=O)c4snnc4-c4ccccc4)CC3)ncnc2s1` [Example 348, [4-(6-Ethyl-thieno[2,3-d]pyrimidin-4-yl)-piperazin-1-yl]-(4-phenyl-[1,2,3]-thiadiazol-5-yl)-methanone], the “Relative Activity” value is recorded as “+ (>20 micromolar)”.

For the compound `CCc1cc2c(N3CCN(C(=O)CCC(C)C)CC3)ncnc2s1` [Example 17, 1-[4-(6-ethylthiopheno[3,2-e]pyrimidin-4-yl)piperazinyl]-4-methylpentan-1-one], the “Relative Activity” value was “+++ (<10 micromolar)”. In the case of `CC(C)(C)c1cc2c(N3CCN(C(=O)Cc4ccccc4)CC3)ncnc2s1` [Example 106, 1-{4-[6-(tert-butyl)thiopheno[3,2-e]pyrimidin-4-yl]piperazinyl}-2-phenylethan-1-one] it was “++ (10–20 micromolar)”; in that of `CCc1cc2c(N3CCCN(C(=O)CCCOn4nnc5ccccc54)CC3)ncnc2s1` [Example 188, 4-benzotriazolyloxy-1-[4-(6-ethylthiopheno[3,2-e]pyrimidin-4-yl)(1,4-diazaperhydroepinyl)]butan-1-one], “+++ (<10 micromolar)”; in that of `CCc1cc2c(N3CCN(C(=O)C#Cc4ccccc4)CC3)ncnc2s1` [Example 332, 1-[4-(6-Ethyl-thieno[2,3-d]pyrimidin-4-yl)-piperazin-1-yl]-3-phenyl-propynone], “++ (10–20 micromolar)”. In the case of `CCc1cc2c(N3CCN(C(=O)CN4CCCC(n5nnc6ccccc65)C4)CC3)ncnc2s1` (centres unmarked) [Example 271, 2-(3-Benzotriazol-1-yl-piperidin-1-yl)-1-[4-(6-ethyl-thieno[2,3-d]pyrimidin-4-yl)-piperazin-1-yl]-ethanone] it was “++ (10–20 micromolar)”.

On to `CCc1cc2c(N3CCN(C(=O)CCCCNC(=O)c4ccccc4)CC3)ncnc2s1` [Example 313, N-{5-[4-(6-Ethyl-thieno[2,3-d]pyrimidin-4-yl)-piperazin-1-yl]-5-oxo-pentyl}-benzamide], for which the “Relative Activity” value is “++ (10–20 micromolar)”. Under `CCc1cc2c(N3CCN(C(=O)Cc4ccccc4)CC3)ncnc2s1` [Example 2, 1-[4-(6-ethylthiopheno[3,2-e]pyrimidin-4-yl)piperazinyl]-2-phenylethan-1-one] stands “+++ (<10 micromolar)”. In the case of `CCc1cc2c(N3CCN(C(=O)C=C(C(F)(F)F)C(F)(F)F)CC3)ncnc2s1` [Example 59, 1-[4-(6-ethylthopheno[3,2-e]pyrimidin-4-yl)pperazinyl]-4,4,4-trifluoro-3-(trifluoromethyl)but-2-en-1-one] it was “+ (>20 micromolar)”; in that of `CCc1cc2c(N3CCN(C(=O)c4ccc(-c5ccccc5)cc4)CC3)ncnc2s1` [Example 71, 4-(6-ethylthiopheno[3,2-e]pyrimidin-4-yl)piperazinyl 4-phenylphenyl ketone], “+++ (<10 micromolar)”. Under `CCOC(=O)c1nc(N2CCN(C(=O)Cc3ccccc3)CC2)c2cc(CC)sc2n1` [Example 236, 6-Ethyl-4-(4-phenylacetyl-piperazin-1-yl)-thieno[2,3-d]pyrimidine-2-carboxylic acid ethyl ester] stands “+++ (<10 micromolar)”. Consider `CCc1cc2c(N3CCN(C(=O)Cc4ccccc4)CC3C)ncnc2s1` (centres unmarked) [Example 193, 1-[4-(6-ethylthiopheno[3,2-e]pyrimidin-4-yl)-3-methylpiperazinyl]-2-phenylethan-1-one], for which the “Relative Activity” value was “+++ (<10 micromolar)”. Under `CCc1cc2c(N3CCN(C(=O)Cc4ccccc4)CC3)nc(O)nc2s1` [Example 183, 1-[4-(6-ethyl-2-hydroxythiopheno[3,2-e]pyrimidin-4-yl)piperazinyl]-2-phenylethan-1-one] stands “+ (>20 micromolar)”; under `O=C(Cc1ccccc1)N1CCN(c2ncnc3sc(Cc4ccccc4)cc23)CC1` [Example 112, 2-phenyl-1-{4-[6-benzylthiopheno[3,2-e]pyrimidin-4-yl]piperazinyl} ethan-1-one], “+++ (<10 micromolar)”; under `CCc1cc2c(N3CCN(C(=O)Cc4ccccc4)CC3)nc(SC)nc2s1` [Example 169, 1-[4-(6-ethyl-2-methylthiothiopheno[3,2-e]pyrimidin-4-yl)piperazinyl]-2-phenylethan-1-one], “+++ (<10 micromolar)”.

For `CCc1cc2c(N3CCN(C(=O)CC(F)(F)F)CC3)ncnc2s1` [Example 5, 1-[4-(6-ethylthiopheno[3,2-e]pyrimidin-4-yl)piperazinyl]-3,3,3-trifluoropropan-1-one], the “Relative Activity” value is “+++ (<10 micromolar)”. In the case of `CCc1cc2c(N3CCN(C(=O)[C@H](C)c4ccccc4)CC3)ncnc2s1` [Example 349, 1-[4-(6-Ethyl-thieno[2,3-d]pyrimidin-4-yl)-piperazin-1-yl]-2-phenyl-propan-1-one] it was “+ (>20 micromolar)”.

For the compound `O=C(CC(F)(F)F)N1CCN(c2ncnc3sc(-c4ccccc4)cc23)CC1` [Example 111, 3,3,3-trifluoro-1-[4-(6-phenylthiopheno[3,2-e]pyrimidin-4-yl)piperazinyl]propan-1-one], the “Relative Activity” value is “++ (10–20 micromolar)”.

Take `CCc1cc2c(N3CCN(C(=O)CCCSc4nccn4-c4ccccc4)CC3)ncnc2s1` [Example 429, 1-[4-(6-Ethyl-thieno[2,3-d]pyrimidin-4-yl)-piperazin-1-yl]-4-(1-phenyl-1H-imidazol-2-ylsulfanyl)-butan-1-one]: the “Relative Activity” value is “+ (>20 micromolar)”.

Consider `CCc1cc2c(N3CCN(C(=O)C(c4ccccc4)c4ccccc4)CC3)ncnc2s1` [Example 70, 1-[4-(6-ethylthiopheno[3,2-e]pyrimidin-4-yl)piperazinyl]-2,2-diphenylethan-1-one], for which the “Relative Activity” value is given as “+ (>20 micromolar)”. In the case of `CCc1cc2c(N3CCN(C(=O)c4ccncc4)CC3)ncnc2s1` [Example 362, [4-(6-Ethyl-thieno[2,3-d]pyrimidin-4-yl)-piperazin-1-yl]-pyridin-4-yl-methanone] it was “+ (>20 micromolar)”; in that of `CCc1cc2c(N3CCN(C(=O)CCC(=O)OC)CC3)ncnc2s1` [Example 384, 4-[4-(6-Ethyl-thieno[2,3-d]pyrimidin-4-yl)-piperazin-1-yl]-4-oxo-butyric acid methyl ester], “+ (>20 micromolar)”.
